Relative viability data for 1 cell line are collected here from the supplement of paper PMC10307832.

Test in all cases: relative viability (nuclei count vs DMSO), 5 days (fraction); higher = more cells survive
Compound in one assay: CC[C@H](Nc1ncnc2[nH]cnc12)c1nc2cccc(F)c2c(=O)n1-c1ccccc1 [Idelalisib]
Summed up:
(§1)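 Lung cancer cell lines received five library-drug doses (not always all listed) spaced by √10, pinned on vehicle-anchored 1536-well plates after an overnight stay at 37 °C. Five days later, with no medium change, nuclei were Hoechst-stained, imaged at 4× and counted with MetaXpress. Viability is treated-well nuclei relative to vehicle-well nuclei, as a median across plates. Passing plates had control CV below 25% and at least one doubling.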

Compound in the next assay: Nc1nc2[nH]cc(CCc3ccc(C(=O)N[C@@H](CCC(=O)O)C(=O)O)cc3)c2c(=O)[nH]1 [Pemetrexed]
Summed up: as §1

Compound in the assay “Idelalisib + Dasatinib”: CC[C@H](Nc1ncnc2[nH]cnc12)c1nc2cccc(F)c2c(=O)n1-c1ccccc1 [Idelalisib] + Cc1nc(Nc2ncc(C(=O)Nc3c(C)cccc3Cl)s2)cc(N2CCN(CCO)CC2)n1 [Dasatinib] (partner 0.075 µM)
The essentials: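 Each reported value is a median over duplicate plates. It expresses relative viability: treated-well nuclei count divided by vehicle-well nuclei count. Lung cancer cell lines in 1536-well plates were dosed by pin tool a day after seeding, alone with one drug or with a fixed anchor-drug dose plus five library-drug doses (not always all listed) in √10 steps, and nuclei were counted after 5 days.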

Take UMC-11: the relative viability came to 1.04 with Idelalisib (0.04 µM); 1.05 with Idelalisib (0.1265 µM); 0.921 with Idelalisib (0.4 µM); 1.01 with Idelalisib (1.265 µM); 0.984 in the assay with Idelalisib (4 µM); 0.996 with Pemetrexed (0.002 µM). The relative viability stood at 0.955 with Pemetrexed (0.006325 µM); 1.04 with Pemetrexed (0.02 µM); 1.03 with Pemetrexed (0.06325 µM); 0.846 with Pemetrexed (0.2 µM); 0.805 in the assay with Pemetrexed (0.2 µM, anchor plate); 0.349 in the assay with Idelalisib + Dasatinib (first compound 0.04 µM). For the same cell line, the relative viability was determined as 0.492 with Idelalisib + Dasatinib (first compound 0.1265 µM), 0.391 with Idelalisib + Dasatinib (first compound 0.4 µM), 0.564 in the assay with Idelalisib + Dasatinib (first compound 1.265 µM) and 0.474 with Idelalisib + Dasatinib (first compound 4 µM).
